Test results published in US11285220B2, “Materials and methods relating to linkers for use in protein drug conjugates” (Iksuda Therapeutics Limited, priority 2014, dated 2022).

Experiment: Reactivity of PL13 free acid with aspartic acid
Details: 10 equivalents Asp, pH 7.0, 18 hours, RT
Protocol: PL13 free acid was treated with 10 equivalents of aspartic acid (Asp) at pH 7.0 and at RT. Analysis was performed by RP-HPLC at gradient of 1% to 50% B over 15 minutes with detection at 254 nm.
50 μL of 2.61 mM PL13 free acid in methanol was mixed with […] of […] in buffer to give a final concentration of 0.42 mM PL13 free acid and 4.2 mM Asp.

stability in the presence of Asp: stable
Structure (SMILES): C=Cc1cc(C)nc(CCC(=O)O)c1 [PL13 free acid]
